Values after ≈ are worked out from the molar mass of the structure shown.
Columns and labels:
Staphylococcus aureus [1] = assay: Bactericidal activity against Staphylococcus aureus ATCC 6538 after 24 hrs; assay type: functional; conditions: ATCC 6538, 24 h, read-out: MBC99.9
Bacillus anthracis = assay: Antimicrobial activity against Bacillus anthracis 34F2 after 18 hrs by twofold serial broth dilution method; assay type: functional; conditions: 34F2, 18 h
[2] = system: Staphylococcus epidermidis; assay: Bactericidal activity against methicillin-resistant Staphylococcus epidermidis isolate 424/10 after 24 hrs; assay type: functional; conditions: isolate 424/10, 24 h, read-out: MBC99.9
Staphylococcus aureus [3] = assay: Antimicrobial activity against Staphylococcus aureus […] after 18 hrs by twofold serial broth dilution method; assay type: functional
[4] = system: Staphylococcus epidermidis; assay: Antimicrobial activity against methicillin-resistant Staphylococcus epidermidis isolate 455/11 after 18 hrs by twofold serial broth dilution method; assay type: functional; conditions: isolate 455/11, 18 h
[5] = system: Staphylococcus epidermidis; assay: Antimicrobial activity against methicillin-resistant Staphylococcus epidermidis isolate 460/11 after 18 hrs by twofold serial broth dilution method; assay type: functional; conditions: isolate 460/11, 18 h
[6] = system: Staphylococcus epidermidis; assay: Bactericidal activity against methicillin-resistant Staphylococcus epidermidis isolate 460/11 after 24 hrs; assay type: functional; conditions: isolate 460/11, 24 h, read-out: MBC99.9
Bacillus subtilis [7] = assay: Genotoxicity in rec-negative Bacillus subtilis M45 at 2 ug/9 mm disc after 24 hrs by disc diffusion method; assay type: toxicity, organism-based
Escherichia coli [8] = assay: Bactericidal activity against Escherichia coli ATCC 10538 after 24 hrs; assay type: functional; conditions: ATCC 10538, 24 h, read-out: MBC99.9
Staphylococcus aureus [9] = assay: Antimicrobial activity against Staphylococcus aureus NCTC 4163 after 18 hrs by twofold serial broth dilution method; assay type: functional; conditions: NCTC 4163, 18 h
Pseudomonas aeruginosa [10] = assay: Bactericidal activity against Pseudomonas aeruginosa ATCC 27853 after 24 hrs; assay type: functional; conditions: ATCC 27853, 24 h, read-out: MBC99.9
[11] = system: Staphylococcus epidermidis; assay: Antimicrobial activity against methicillin-resistant Staphylococcus epidermidis isolate 407/10 after 18 hrs by twofold serial broth dilution method; assay type: functional; conditions: isolate 407/10, 18 h
Staphylococcus aureus [12] = assay: Bactericidal activity against Staphylococcus aureus NCTC 4163 after 24 hrs; assay type: functional; conditions: NCTC 4163, 24 h, read-out: MBC99.9
[13] = system: Staphylococcus epidermidis; assay: Bactericidal activity against methicillin-resistant Staphylococcus epidermidis isolate 458/11 after 24 hrs; assay type: functional; conditions: isolate 458/11, 24 h, read-out: MBC99.9
[14] = system: Staphylococcus epidermidis; assay: Bactericidal activity against methicillin-resistant Staphylococcus epidermidis isolate 457/11 after 24 hrs; assay type: functional; conditions: isolate 457/11, 24 h, read-out: MBC99.9
[15] = system: Staphylococcus epidermidis; assay: Antimicrobial activity against Staphylococcus epidermidis ATCC 35984 after 18 hrs by twofold serial broth dilution method; assay type: functional; conditions: ATCC 35984, 18 h
Pseudomonas aeruginosa [16] = assay: Bactericidal activity against Pseudomonas aeruginosa NCTC 6749 after 24 hrs; assay type: functional; conditions: NCTC 6749, 24 h, read-out: MBC99.9
Staphylococcus aureus [17] = assay: Bactericidal activity against Staphylococcus aureus ATCC 25923 after 24 hrs; assay type: functional; conditions: ATCC 25923, 24 h, read-out: MBC99.9
Escherichia coli [18] = assay: Antimicrobial activity against Escherichia coli NCTC 8196 after 18 hrs by twofold serial broth dilution method; assay type: functional; conditions: NCTC 8196, 18 h
[19] = system: Staphylococcus epidermidis; assay: Bactericidal activity against methicillin-resistant Staphylococcus epidermidis isolate 454/11 after 24 hrs; assay type: functional; conditions: isolate 454/11, 24 h, read-out: MBC99.9
Pseudomonas aeruginosa [20] = assay: Antimicrobial activity against Pseudomonas aeruginosa NCTC 6749 after 18 hrs by twofold serial broth dilution method; assay type: functional; conditions: NCTC 6749, 18 h
Staphylococcus aureus [21] = assay: Bactericidal activity against Staphylococcus aureus […] after 24 hrs; assay type: functional; conditions: read-out: MBC99.9
[22] = system: Staphylococcus epidermidis; assay: Bactericidal activity against methicillin-resistant Staphylococcus epidermidis isolate 409/10 after 24 hrs; assay type: functional; conditions: isolate 409/10, 24 h, read-out: MBC99.9
[23] = system: Staphylococcus epidermidis; assay: Bactericidal activity against Staphylococcus epidermidis ATCC 35984 after 24 hrs; assay type: functional; conditions: ATCC 35984, 24 h, read-out: MBC99.9
[24] = system: Staphylococcus epidermidis; assay: Bactericidal activity against methicillin-resistant Staphylococcus epidermidis isolate 403/10 after 24 hrs; assay type: functional; conditions: isolate 403/10, 24 h, read-out: MBC99.9
[25] = system: Staphylococcus epidermidis; assay: Antimicrobial activity against methicillin-resistant Staphylococcus epidermidis isolate 457/11 after 18 hrs by twofold serial broth dilution method; assay type: functional; conditions: isolate 457/11, 18 h
Staphylococcus aureus [26] = assay: Antimicrobial activity against Staphylococcus aureus ATCC 25923 after 18 hrs by twofold serial broth dilution method; assay type: functional; conditions: ATCC 25923, 18 h
[27] = system: Staphylococcus epidermidis; assay: Antimicrobial activity against methicillin-resistant Staphylococcus epidermidis isolate 459/11 after 18 hrs by twofold serial broth dilution method; assay type: functional; conditions: isolate 459/11, 18 h
[28] = system: Staphylococcus epidermidis; assay: Antimicrobial activity against methicillin-resistant Staphylococcus epidermidis isolate 469/11 after 18 hrs by twofold serial broth dilution method; assay type: functional; conditions: isolate 469/11, 18 h
[29] = system: Staphylococcus epidermidis; assay: Bactericidal activity against methicillin-resistant Staphylococcus epidermidis isolate 470/11 after 24 hrs; assay type: functional; conditions: isolate 470/11, 24 h, read-out: MBC99.9
[30] = system: Staphylococcus epidermidis; assay: Bactericidal activity against methicillin-resistant Staphylococcus epidermidis isolate 407/10 after 24 hrs; assay type: functional; conditions: isolate 407/10, 24 h, read-out: MBC99.9
[31] = system: Staphylococcus epidermidis; assay: Antimicrobial activity against methicillin-resistant Staphylococcus epidermidis isolate 424/10 after 18 hrs by twofold serial broth dilution method; assay type: functional; conditions: isolate 424/10, 18 h
[32] = system: Staphylococcus epidermidis; assay: Antimicrobial activity against methicillin-resistant Staphylococcus epidermidis isolate 409/10 after 18 hrs by twofold serial broth dilution method; assay type: functional; conditions: isolate 409/10, 18 h
Pseudomonas aeruginosa [33] = assay: Bactericidal activity against Pseudomonas aeruginosa ATCC 15442 after 24 hrs; assay type: functional; conditions: ATCC 15442, 24 h, read-out: MBC99.9
[34] = system: Staphylococcus epidermidis; assay: Antimicrobial activity against methicillin-resistant Staphylococcus epidermidis isolate 458/11 after 18 hrs by twofold serial broth dilution method; assay type: functional; conditions: isolate 458/11, 18 h
[35] = system: Staphylococcus epidermidis; assay: Bactericidal activity against methicillin-resistant Staphylococcus epidermidis isolate 459/11 after 24 hrs; assay type: functional; conditions: isolate 459/11, 24 h, read-out: MBC99.9
[36] = system: Staphylococcus epidermidis; assay: Antimicrobial activity against methicillin-resistant Staphylococcus epidermidis isolate 454/11 after 18 hrs by twofold serial broth dilution method; assay type: functional; conditions: isolate 454/11, 18 h
Escherichia coli [37] = assay: Antimicrobial activity against Escherichia coli ATCC 10538 after 18 hrs by twofold serial broth dilution method; assay type: functional; conditions: ATCC 10538, 18 h
Bacillus subtilis [38] = assay: Genotoxicity in rec-positive Bacillus subtilis H17 at 2 ug/9 mm disc after 24 hrs by disc diffusion method; assay type: toxicity, organism-based
[39] = system: Staphylococcus epidermidis; assay: Antimicrobial activity against methicillin-resistant Staphylococcus epidermidis isolate 422/10 after 18 hrs by twofold serial broth dilution method; assay type: functional; conditions: isolate 422/10, 18 h
[40] = system: Staphylococcus epidermidis; assay: Bactericidal activity against methicillin-resistant Staphylococcus epidermidis isolate 455/11 after 24 hrs; assay type: functional; conditions: isolate 455/11, 24 h, read-out: MBC99.9
Pseudomonas aeruginosa [41] = assay: Antimicrobial activity against Pseudomonas aeruginosa ATCC 27853 after 18 hrs by twofold serial broth dilution method; assay type: functional; conditions: ATCC 27853, 18 h
Escherichia coli [42] = assay: Antimicrobial activity against Escherichia coli ATCC 25922 after 18 hrs by twofold serial broth dilution method; assay type: functional; conditions: ATCC 25922, 18 h

`CC[C@@H](C(=O)[C@@H](C)[C@@H](O)[C@H](C)[C@@H]1O[C@@H]([C@@H](CC)C(=O)N(Cc2ccccc2)Cc2ccccc2)CC[C@@H]1C)[C@H]1O[C@]2(C=C[C@@H](O)[C@]3(CC[C@@](C)([C@H]4CC[C@](O)(CC)[C@H](C)O4)O3)O2)[C@H](C)C[C@@H]1C` was tested. Which MBC (Staphylococcus aureus [1]) did it give?
Its MBC is 256 µg/mL (≈ 275 µM).

What about the MIC (Bacillus anthracis) of the same molecule?
The MIC was 32 µg/mL (≈ 34.4 µM).

And the MBC [2]?
Its MBC is 256 µg/mL (≈ 275 µM).

And the MIC (Staphylococcus aureus [3])?
The MIC was 32 µg/mL (≈ 34.4 µM).

And the MIC [4]?
The MIC was 32 µg/mL (≈ 34.4 µM).

And the MIC [5]?
The MIC was 32 µg/mL (≈ 34.4 µM).

And the MBC [6]?
The MBC was over 256 µg/mL.

And the “diameter of the inhibition zone (DIZ)” value (Bacillus subtilis [7])?
Its value is 20 mm.

What about the MBC (Escherichia coli [8]) of the same molecule?
The MBC was over 256 µg/mL.

What about the MIC (Staphylococcus aureus [9]) of the same molecule?
The MIC was 16 µg/mL (≈ 17.2 µM).

And the MBC (Pseudomonas aeruginosa [10])?
The MBC was over 256 µg/mL.

And the MIC [11]?
Its MIC is 16 µg/mL (≈ 17.2 µM).

And the MBC (Staphylococcus aureus [12])?
Its MBC is 256 µg/mL (≈ 275 µM).

And the MBC [13]?
The MBC was over 256 µg/mL.

What about the MBC [14] of the same molecule?
Its MBC is 256 µg/mL (≈ 275 µM).

What about the MIC [15] of the same molecule?
The MIC was 8 µg/mL (≈ 8.6 µM).

And the MBC (Pseudomonas aeruginosa [16])?
Its MBC is over 256 µg/mL.

And the MBC (Staphylococcus aureus [17])?
Its MBC is 128 µg/mL (≈ 138 µM).

And the MIC (Escherichia coli [18])?
The MIC was over 256 µg/mL.

And the MBC [19]?
The MBC was 128 µg/mL (≈ 138 µM).

And the MIC (Pseudomonas aeruginosa [20])?
The MIC was over 256 µg/mL.

And the MBC (Staphylococcus aureus [21])?
Its MBC is over 256 µg/mL.

What about the MBC [22] of the same molecule?
Its MBC is 256 µg/mL (≈ 275 µM).

What about the MBC [23] of the same molecule?
Its MBC is 128 µg/mL (≈ 138 µM).

What about the MBC [24] of the same molecule?
The MBC was over 256 µg/mL.

What about the MIC [25] of the same molecule?
The MIC was 16 µg/mL (≈ 17.2 µM).

What about the MIC (Staphylococcus aureus [26]) of the same molecule?
Its MIC is 8 µg/mL (≈ 8.6 µM).

What about the MIC [27] of the same molecule?
The MIC was 16 µg/mL (≈ 17.2 µM).

What about the MIC [28] of the same molecule?
The MIC was 32 µg/mL (≈ 34.4 µM).

What about the MBC [29] of the same molecule?
Its MBC is over 256 µg/mL.

What about the MBC [30] of the same molecule?
Its MBC is 256 µg/mL (≈ 275 µM).

What about the MIC [31] of the same molecule?
Its MIC is 16 µg/mL (≈ 17.2 µM).

What about the MIC [32] of the same molecule?
The MIC was 16 µg/mL (≈ 17.2 µM).

What about the MBC (Pseudomonas aeruginosa [33]) of the same molecule?
Its MBC is over 256 µg/mL.

And the MIC [34]?
Its MIC is 16 µg/mL (≈ 17.2 µM).

And the MBC [35]?
Its MBC is 256 µg/mL (≈ 275 µM).

What about the MIC [36] of the same molecule?
The MIC was 8 µg/mL (≈ 8.6 µM).

And the MIC (Escherichia coli [37])?
Its MIC is over 256 µg/mL.

And the “diameter of the inhibition zone (DIZ)” value (Bacillus subtilis [38])?
Its value is 21 mm.

What about the MIC [39] of the same molecule?
Its MIC is 16 µg/mL (≈ 17.2 µM).

And the MBC [40]?
The MBC was 256 µg/mL (≈ 275 µM).

What about the MIC (Pseudomonas aeruginosa [41]) of the same molecule?
Its MIC is over 256 µg/mL.

What about the MIC (Escherichia coli [42]) of the same molecule?
The MIC was over 256 µg/mL.

Reference: ChEMBL document CHEMBL3400015, “Tertiary amides of Salinomycin: A new group of antibacterial agents against Bacillus anthracis and methicillin-resistant Staphylococcus epidermidis” (Bioorg Med Chem Lett, 2015)
